Compound: CO[C@@H]1[C@H](N(C)C(=O)c2ccccc2)C[C@H]2O[C@]1(C)n1c3ccccc3c3c4c(c5c6ccccc6n2c5c31)C(=O)NC4 [Midostaurin] + CCNC(=O)c1noc(-c2cc(C(C)C)c(O)cc2O)c1-c1ccc(CN2CCOCC2)cc1 [Luminespib] (partner 0.01 µM)
Test: relative viability (nuclei count vs DMSO), 5 days (fraction); higher = more cells survive
Settings: first compound 0.01 µM
Outline: (§1)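 Each reported value is a median over duplicate plates. It expresses relative viability: treated-well nuclei count divided by vehicle-well nuclei count. Lung cancer cell lines in 1536-well plates were dosed by pin tool a day after seeding, alone with one drug or with a fixed anchor-drug dose plus five library-drug doses (not always all listed) in √10 steps, and nuclei were counted after 5 days.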

Cell Line	relative viability
EKVX	0.883
LC-2-ad	0.953
NCI-H1944	0.764
NCI-H1975	0.226
RERF-LC-KJ	1.29
NCI-H358	0.241
NCI-H650	0.76
PC-3 [JPC-3]	0.736

Same assay, conditions: first compound 0.03162 µM

Cell Line	relative viability
EKVX	0.868
LC-2-ad	0.955
NCI-H1944	0.872
NCI-H1975	0.19
RERF-LC-KJ	1.49
ABC-1	0.571
NCI-H358	0.309
NCI-H650	0.826
PC-3 [JPC-3]	0.658

Same assay, conditions: first compound 0.1 µM

Cell Line	relative viability
EKVX	0.823
LC-2-ad	0.925
NCI-H1944	0.67
NCI-H1975	0.123
RERF-LC-KJ	1.14
ABC-1	0.641
NCI-H358	0.263
NCI-H650	0.8
PC-3 [JPC-3]	0.667

Same assay, conditions: first compound 0.3162 µM

Cell Line	relative viability
EKVX	0.749
LC-2-ad	0.996
NCI-H1944	0.773
NCI-H1975	0.223
RERF-LC-KJ	1.17
ABC-1	0.591
NCI-H358	0.298
NCI-H650	0.771
PC-3 [JPC-3]	0.692

Compound: CO[C@@H]1[C@H](N(C)C(=O)c2ccccc2)C[C@H]2O[C@]1(C)n1c3ccccc3c3c4c(c5c6ccccc6n2c5c31)C(=O)NC4 [Midostaurin] + Cc1nc(Nc2ncc(C(=O)Nc3c(C)cccc3Cl)s2)cc(N2CCN(CCO)CC2)n1 [Dasatinib] (partner 0.075 µM)
Test: as above
Settings: first compound 0.01 µM
Outline: as §1

Cell Line	relative viability
EKVX	0.696
LC-2-ad	0.476
NCI-H1944	0.222
NCI-H1975	0.381
RERF-LC-KJ	0.848
ABC-1	0.512
NCI-H358	0.177
NCI-H650	0.401
PC-3 [JPC-3]	0.952

Same assay, conditions: first compound 0.03162 µM

Cell Line	relative viability
EKVX	0.598
LC-2-ad	0.582
NCI-H1944	0.227
NCI-H1975	0.374
RERF-LC-KJ	0.934
ABC-1	0.668
NCI-H358	0.124
NCI-H650	0.406
PC-3 [JPC-3]	0.893

Same assay, conditions: first compound 0.1 µM

Cell Line	relative viability
EKVX	0.468
LC-2-ad	0.579
NCI-H1944	0.234
NCI-H1975	0.326
RERF-LC-KJ	0.876
ABC-1	0.451
NCI-H358	0.15
NCI-H650	0.385
PC-3 [JPC-3]	1.07

Same assay, conditions: first compound 0.3162 µM

Cell Line	relative viability
EKVX	0.456
LC-2-ad	0.537
NCI-H1944	0.222
NCI-H1975	0.296
RERF-LC-KJ	0.709
ABC-1	0.504
NCI-H358	0.208
NCI-H650	0.315
PC-3 [JPC-3]	1.01

Compound: CO[C@@H]1[C@H](N(C)C(=O)c2ccccc2)C[C@H]2O[C@]1(C)n1c3ccccc3c3c4c(c5c6ccccc6n2c5c31)C(=O)NC4 [Midostaurin] + NC(=O)Nc1cc(-c2cccc(F)c2)sc1C(=O)N[C@H]1CCCNC1 [AZD7762] (partner 0.2 µM)
Test: as above
Settings: first compound 0.01 µM
Outline: as §1

Cell Line	relative viability
EKVX	0.604
LC-2-ad	0.873
NCI-H1944	0.507
NCI-H1975	0.818
RERF-LC-KJ	0.994
ABC-1	0.844
NCI-H358	0.475
NCI-H650	1.01
PC-3 [JPC-3]	0.737

Same assay, conditions: first compound 0.03162 µM

Cell Line	relative viability
EKVX	0.713
LC-2-ad	0.878
NCI-H1944	0.616
NCI-H1975	0.756
RERF-LC-KJ	0.96
ABC-1	0.824
NCI-H358	0.513
NCI-H650	1.04
PC-3 [JPC-3]	0.892

Same assay, conditions: first compound 0.1 µM

Cell Line	relative viability
EKVX	0.883
LC-2-ad	0.843
NCI-H1944	0.493
NCI-H1975	0.673
RERF-LC-KJ	1.05
ABC-1	0.729
NCI-H358	0.571
NCI-H650	0.942
PC-3 [JPC-3]	0.759

Same assay, conditions: first compound 0.3162 µM

Cell Line	relative viability
EKVX	0.778
LC-2-ad	0.724
NCI-H1944	0.56
NCI-H1975	0.654
RERF-LC-KJ	1.03
NCI-H358	0.391
NCI-H650	1.11
PC-3 [JPC-3]	0.869

Compound: CO[C@@H]1[C@H](N(C)C(=O)c2ccccc2)C[C@H]2O[C@]1(C)n1c3ccccc3c3c4c(c5c6ccccc6n2c5c31)C(=O)NC4 [Midostaurin] + O=C(CCCCCCC(=O)Nc1ccccc1)NO [Vorinostat] (partner 1 µM)
Test: as above
Settings: first compound 0.01 µM
Outline: as §1

Cell Line	relative viability
EKVX	0.735
LC-2-ad	0.692
NCI-H1944	0.528
NCI-H1975	0.695
RERF-LC-KJ	0.715
ABC-1	1.23
NCI-H358	0.625
NCI-H650	0.431
PC-3 [JPC-3]	0.776

Same assay, conditions: first compound 0.03162 µM

Cell Line	relative viability
EKVX	0.714
LC-2-ad	0.644
NCI-H1944	0.595
NCI-H1975	0.706
RERF-LC-KJ	0.709
ABC-1	1.37
NCI-H358	0.536
NCI-H650	0.474
PC-3 [JPC-3]	0.788

Same assay, conditions: first compound 0.1 µM

Cell Line	relative viability
EKVX	0.808
LC-2-ad	0.775
NCI-H1944	0.496
NCI-H1975	0.574
RERF-LC-KJ	0.67
ABC-1	1.08
NCI-H358	0.391
NCI-H650	0.875
PC-3 [JPC-3]	0.68

Same assay, conditions: first compound 0.3162 µM

Cell Line	relative viability
EKVX	0.583
LC-2-ad	0.459
NCI-H1944	0.453
NCI-H1975	0.416
RERF-LC-KJ	0.646
ABC-1	0.996
NCI-H358	0.197
NCI-H650	0.412
PC-3 [JPC-3]	1.07

Compound: COc1cc(-c2nn([C@H]3CC[C@H](N4CCN(C(C)=O)CC4)CC3)c3ncnc(N)c23)ccc1NC(=O)c1cc2ccccc2n1C + Cc1cc(Nc2cc(N3CCN(C)CC3)nc(Sc3ccc(NC(=O)C4CC4)cc3)n2)n[nH]1 [Tozasertib] (partner 0.1 µM)
Test: as above
Settings: first compound 0.0128 µM
Outline: as §1

Cell Line	relative viability
EKVX	0.398
LC-2-ad	0.379
NCI-H1944	0.265
NCI-H1975	0.868
RERF-LC-KJ	0.51
ABC-1	0.151
NCI-H358	0.107
NCI-H650	0.663
PC-3 [JPC-3]	0.845

Same assay, conditions: first compound 0.04048 µM

Cell Line	relative viability
EKVX	0.379
LC-2-ad	0.542
NCI-H1944	0.257
NCI-H1975	0.896
RERF-LC-KJ	0.522
ABC-1	0.205
NCI-H358	0.104
NCI-H650	0.747
PC-3 [JPC-3]	0.904

Same assay, conditions: first compound 0.128 µM

Cell Line	relative viability
EKVX	0.332
LC-2-ad	0.405
NCI-H1944	0.24
NCI-H1975	0.528
RERF-LC-KJ	0.401
ABC-1	0.176
NCI-H358	0.103
NCI-H650	0.735
PC-3 [JPC-3]	0.802

Same assay, conditions: first compound 1.28 µM

Cell Line	relative viability
EKVX	0.19
LC-2-ad	0.371
NCI-H1944	0.196
NCI-H1975	0.159
RERF-LC-KJ	0.424
ABC-1	0.154
NCI-H358	0.0932
NCI-H650	0.732
PC-3 [JPC-3]	0.896
